Data on 1 compound can be found in patent US20210255193A1, “LYSINE REACTIVE PROBES AND USES THEREOF” (The Scripps Research Institute, priority 2017, published 2021).

Assay in all cases: competitive isoTOP-ABPP
For assay [1], the target named is T1, NUDT2 Bis(5-nucleosyl)-tetraphosphatase (Homo sapiens, UniProt P50583).
T1 construct: isoTOP-ABPP experiments performed in cell lysates (in vitro); endogenous in cells
The class given is binding. The method, boiled down: (§1)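 Lysine engagement is reported as R, the MS1 peak-area ratio of heavy-tagged DMSO to light-tagged compound samples. Final fragment concentrations were 50 μM for activated esters and 100 μM for guanidinylating agents; STP-alkyne probe 0.1 mM, 1 h.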

The target in assay [2] is T2, ABCE1 ATP-binding cassette sub-family E member 1 (Homo sapiens, UniProt P61221).
T2 construct: isoTOP-ABPP experiments performed in cell lysates (in vitro); endogenous in cells; host or cells: soluble proteome of human cancer cell lines (MDA-MB-231, Ramos, Jurkat)
The conditions noted are these: 100 uM_231_sol_in vitro. In a few lines: as §1

Assay [3] concerns the target T3, ISOC2 Isochorismatase domain-containing protein 2, mitochondrial (Homo sapiens, UniProt Q96AB3).
T3 construct: isoTOP-ABPP experiments performed in cell lysates (in vitro); endogenous in cells; host or cells: soluble proteome of human cancer cell lines (MDA-MB-231; Ramos and Jurkat also prepared)
T3 sequence (Q96AB3 1-205): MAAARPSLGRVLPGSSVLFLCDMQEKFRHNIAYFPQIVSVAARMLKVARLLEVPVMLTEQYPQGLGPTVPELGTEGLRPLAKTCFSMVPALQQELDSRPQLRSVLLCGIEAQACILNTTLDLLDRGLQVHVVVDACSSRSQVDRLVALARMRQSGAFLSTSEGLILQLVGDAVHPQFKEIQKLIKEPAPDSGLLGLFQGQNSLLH
The class given is binding. Conditions: 100 uM_231_sol_in vitro. The method, boiled down: as §1

In assay [4] the target is T4, MAP1LC3B Microtubule-associated proteins 1A/1B light chain (Homo sapiens, UniProt Q9GZQ8).
T4 construct: isoTOP-ABPP experiments performed in cell lysates (in vitro); endogenous in cells; host or cells: soluble proteome of human cancer cell lines (MDA-MB-231; Ramos and Jurkat also prepared)
The class given is binding. The conditions noted are these: 100 uM_231_sol_in vitro. The method, boiled down: as §1

Assay [5] concerns the target T5, ABHD10 Abhydrolase domain-containing protein 10, mitochondrial (Homo sapiens, UniProt Q9NUJ1).
T5 construct: endogenous in cells; host or cells: MDA-MB-231 lysate
T5 sequence (Q9NUJ1 53-306): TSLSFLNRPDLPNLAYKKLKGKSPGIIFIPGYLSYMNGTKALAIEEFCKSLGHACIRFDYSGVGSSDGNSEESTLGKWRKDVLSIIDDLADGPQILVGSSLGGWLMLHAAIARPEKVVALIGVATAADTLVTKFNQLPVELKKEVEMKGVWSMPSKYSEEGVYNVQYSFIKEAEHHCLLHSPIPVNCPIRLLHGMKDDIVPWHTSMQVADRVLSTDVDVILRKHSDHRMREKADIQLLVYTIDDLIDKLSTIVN
The class given is binding. Conditions: 100 uM_231_sol_in vitro. In a few lines:
as §1

T1 sequence (P50583 whole entry): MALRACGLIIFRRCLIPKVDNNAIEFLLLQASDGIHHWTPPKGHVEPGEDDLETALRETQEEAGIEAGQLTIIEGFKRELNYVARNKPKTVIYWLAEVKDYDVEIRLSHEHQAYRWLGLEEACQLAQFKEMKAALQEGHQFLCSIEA

For the compound `CC(C)(C)OC(=O)N=C(NC(=O)OC(C)(C)C)n1cccn1` [fragment 50, reference compound], the “isoTOP-ABPP ratio, lysine P50583_K89” value in assay [1] (100 uM_231_sol_in vitro, possible other lysine P50583_K87) stood at 20.0. For the same compound, the “reaction with K89 by isoTOP-ABPP” value in assay [1] (NUDT2 K89) is on record as “preferentially reacting”. In assay [2], the “isoTOP-ABPP ratio, lysine P61221_K191” value amounted to 14.1 and the “isoTOP-ABPP ratio, lysine P61221_K478” value is 2.1. Further, the “isoTOP-ABPP ratio, lysine Q96AB3_K178” value in assay [3] amounted to 1.1. Also, the “isoTOP-ABPP ratio, lysine Q9GZQ8_K51” value in assay [4] was 4.6. For the same compound, the “isoTOP-ABPP ratio, lysine Q9NUJ1_K185” value in assay [5] is 1.3.
